# Assays:
# [1] = test system: human duodenum monolayer culture; test: Sustained inhibition of apical acid secretion in human organoid monolayer cell cultures (duodenum); type: cell-based; conditions: Homo sapiens
# How it was run: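 Duodenum organoid cells were plated on Transwells, differentiated with EGF/noggin/A83-01 from day 3, and dosed apically on day 6 with compound at 1 μM final (DMSO vehicle control), in duplicate wells, at 37° C, 5% CO2. Apical media pH was measured by electrode on day 8.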
# [2] = target: T1, NHE3 (Homo sapiens, UniProt P48764); test: Cell-based assay of NHE-3 activity (persistent inhibition), human; conditions: human Persistence, 60 min incubation then washout
# T1 construct: expressed in transfected cells
# T1 sequence (P48764 26-834): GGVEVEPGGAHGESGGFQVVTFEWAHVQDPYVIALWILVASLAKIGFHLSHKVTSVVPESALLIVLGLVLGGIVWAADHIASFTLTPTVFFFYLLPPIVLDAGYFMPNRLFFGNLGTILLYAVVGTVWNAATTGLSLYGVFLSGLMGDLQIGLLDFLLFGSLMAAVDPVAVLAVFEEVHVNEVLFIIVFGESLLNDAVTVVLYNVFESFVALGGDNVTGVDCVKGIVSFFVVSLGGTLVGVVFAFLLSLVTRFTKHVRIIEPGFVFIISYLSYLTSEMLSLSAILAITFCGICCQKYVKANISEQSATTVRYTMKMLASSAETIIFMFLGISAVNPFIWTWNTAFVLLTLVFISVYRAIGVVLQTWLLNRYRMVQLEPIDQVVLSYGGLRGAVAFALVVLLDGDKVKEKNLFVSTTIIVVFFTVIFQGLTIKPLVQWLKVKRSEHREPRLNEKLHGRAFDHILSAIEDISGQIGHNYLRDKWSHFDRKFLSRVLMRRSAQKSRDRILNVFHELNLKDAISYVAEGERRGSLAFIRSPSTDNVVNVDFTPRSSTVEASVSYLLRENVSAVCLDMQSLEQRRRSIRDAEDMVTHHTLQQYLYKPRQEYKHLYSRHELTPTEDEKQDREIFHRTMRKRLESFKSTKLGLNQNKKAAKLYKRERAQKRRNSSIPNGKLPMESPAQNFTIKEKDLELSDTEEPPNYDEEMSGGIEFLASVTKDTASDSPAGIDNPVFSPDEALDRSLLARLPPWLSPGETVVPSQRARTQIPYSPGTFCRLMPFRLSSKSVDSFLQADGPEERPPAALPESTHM
# T1 sequence (Q99653 2-195 partner limits assumed): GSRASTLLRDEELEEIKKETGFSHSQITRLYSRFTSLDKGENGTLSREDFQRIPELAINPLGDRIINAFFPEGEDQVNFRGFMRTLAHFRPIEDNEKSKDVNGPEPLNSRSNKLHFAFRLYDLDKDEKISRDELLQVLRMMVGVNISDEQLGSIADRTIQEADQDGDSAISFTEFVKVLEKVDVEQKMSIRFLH
# How it was run: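 Persistent inhibition: compound (0-30 μM, 60 min, RT, NaCl-HEPES pH 7.4) removed before assay. Human NHE3/NHERF2 PS120 cells were then BCECF-loaded during NH4Cl pulse (30 min, 37 °C), acidified in Na+-free buffer, and Na+ added 10 min after washout; antiport measured as initial fluorescence-ratio change per minute.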
Structure (SMILES),inhibition at 1 µM [1],% inhibition [2],pIC50 [2]
"Cc1cc(S(=O)(=O)N2CC[C@@H](COCCOCCNC(=O)NCCCCNC(=O)NCCOCCOC[C@@H]3CCN(S(=O)(=O)c4ccc(O[C@H]5c6cc(Cl)cc(Cl)c6C[C@@H]5N(C)C)c(C)c4)C3)C2)ccc1O[C@H]1c2cc(Cl)cc(Cl)c2C[C@@H]1N(C)C [Example 45, 3-[2-(2-[[(3R)-1-[(4-[[(1S,2S)-4,6-Dichloro-2-(dimethylamino)-2,3-dihydro-1H-inden-1-yl]oxy]-3-methylbenzene)sulfonyl]pyrrolidin-3-yl]methoxy]ethoxy)ethyl]-1-[4-([[2-(2[[(3R)-1-[(4-[[(1S,2S)-4,6-dichloro-2-(dimethylamino)-2,3-dihydro-1H-inden-1-yl]oxy]-3-methylbenzene)sulfonyl]pyrrolidin-3-yl]methoxy]ethoxy)ethyl]carbamoyl]amino)butyl]urea; bis(trifluoroacetic acid)]",> 70%,C (>70%),C (NHE3 pIC50 > 7)
"Cc1cc(S(=O)(=O)N2CC[C@@H](COc3ccnc(CNC(=O)NCCCCNC(=O)NCc4cc(OC[C@@H]5CCN(S(=O)(=O)c6ccc(O[C@H]7c8cc(Cl)cc(Cl)c8C[C@@H]7N(C)C)c(C)c6)C5)ccn4)c3)C2)ccc1O[C@H]1c2cc(Cl)cc(Cl)c2C[C@@H]1N(C)C [Example 49, 3-[(4-[[(3R)-1-[(4-[[(1S,2S)-4,6-Dichloro-2-(dimethylamino)-2,3-dihydro-1H-inden-1-yl]oxy]-3-methylbenzene)sulfonyl]pyrrolidin-3-yl]methoxy]pyridin-2-yl)methyl]-1-[4-([[(4-[[(3R)-1-[(4-[[(1S,2S)-4,6-dichloro-2-(dimethylamino)-2,3-dihydro-1H-inden-1-yl]oxy]-3-methylbenzene)sulfonyl]pyrrolidin-3-yl]methoxy]pyridin-2-yl)methyl]carbamoyl]amino)butyl]urea]",> 70%,C (>70%),C (NHE3 pIC50 > 7)
"Cc1cc(S(=O)(=O)N[C@H]2CCN(CCOCCNC(=O)NCCCCNC(=O)NCCOCCN3CC[C@H](NS(=O)(=O)c4ccc(O[C@H]5c6cc(Cl)cc(Cl)c6C[C@@H]5N(C)C)c(C)c4)C3)C2)ccc1O[C@H]1c2cc(Cl)cc(Cl)c2C[C@@H]1N(C)C [Example 52, 3-(2-[2-[(3S)-3-[(4-[[(1S,2S)-4,6-Dichloro-2-(dimethylamino)-2,3-dihydro-1H-inden-1-yl]oxy]-3-methylbenzene)sulfonamido]pyrrolidin-1-yl]ethoxy]ethyl)-1-(4-[[(2-[2-[(3S)-3-[(4-[[(1S,2S)-4,6-dichloro-2-(dimethylamino)-2,3-dihydro-1H-inden-1-yl]oxy]-3-methylbenzene)sulfonamido]pyrrolidin-1-yl]ethoxy]ethyl)carbamoyl]amino]butyl)urea]",> 70%,C (>70%),C (NHE3 pIC50 > 7)
"Cc1cc(S(=O)(=O)N[C@@H]2CCN(CCOCCNC(=O)NCCCCNC(=O)NCCOCCN3CC[C@@H](NS(=O)(=O)c4ccc(O[C@H]5c6cc(Cl)cc(C#N)c6C[C@@H]5N(C)C)c(C)c4)C3)C2)ccc1O[C@H]1c2cc(Cl)cc(C#N)c2C[C@@H]1N(C)C [Example 55, 3-(2-[2-[(3R)-3-[(4-[[(1S,2S)-6-Chloro-4-cyano-2-(dimethylamino)-2,3-dihydro-1H-inden-1-yl]oxy]-3-methylbenzene)sulfonamido]pyrrolidin-1-yl]ethoxy]ethyl)-1-(4-[[(2-[2-[(3R)-3-[(4-[[(1S,2S)-6-chloro-4-cyano-2-(dimethylamino)-2,3-dihydro-1H-inden-1-yl]oxy]-3-methylbenzene)sulfonamido]pyrrolidin-1-yl]ethoxy]ethyl)carbamoyl]amino]butyl)urea]",50 to 70%,C (>70%),

# Source: patent US11242337B2, “Compounds useful for treating gastrointestinal tract disorders” (Ardelyx, Inc., priority 2017, dated 2022)
